Results on twelve compounds are retold here after patent US11512053B2, “Arginine methyltransferase inhibitors and uses thereof” (priority 2013, dated 2022).

Assay [1] concerns mono-methyl arginine in RKO cells. Briefly: RKO Methylation Assay, In Cell Western (ICW) for detection of mono-methyl arginine and DNA content. It is filed as cell-based. The conditions noted are these: Homo sapiens, RKO, 72 h, RKO cells, read-out: In Cell Western EC30. In outline:
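RKO cells were treated with compound for 72 hours at 37 °C, methanol-fixed and stained overnight at 4 °C with anti-mono-methyl arginine (1:200), with DRAQ5 for DNA. Odyssey 800/700 nm intensity ratio was normalized to DMSO and 20 μM reference-compound controls. EC30 from triplicate nine-point curves.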

Assay [2] addresses full-length human PRMT6 (Flag- and His-tagged) (Homo sapiens, UniProt Q96LA8). Briefly: PRMT6 Biochemical Assay (3H-SAM Flashplate, peptide substrate). The settings on record: read-out: Biochemical IC50 PRMT6. In outline: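 Flag/His-tagged full-length human PRMT6 (1 nM) preincubated with compound 30 min at room temperature in Bicine pH 7.6 buffer, then reaction started with 3H-SAM 200 nM plus unlabeled SAM 250 nM and biotinylated H4 36-50 peptide (K44me1) 75 nM; 2% DMSO. Quenched with 400 uM cold SAM; labeled peptide captured on streptavidin Flashplate, counted; % inhibition vs DMSO and 1 mM SAH controls fit by 3- or 4-parameter curve.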

Setting [3] is: 72 hours compound incubation, mono-methyl arginine signal normalised to DNA content (DRAQ5), percent activation vs 20 μM reference compound.
[4] abbreviates: 72 hours incubation, mono-methyl arginine signal normalised to DNA content, single experiment or average of multiple experiments.
The mark [5] stands for this setting: single experiment or average of multiple experiments.

Read-outs that look alike come from different tables or passages of the source.

Sequence of full-length human PRMT6 (Flag- and His-tagged) (Q96LA8 with tags, fused parts or gaps): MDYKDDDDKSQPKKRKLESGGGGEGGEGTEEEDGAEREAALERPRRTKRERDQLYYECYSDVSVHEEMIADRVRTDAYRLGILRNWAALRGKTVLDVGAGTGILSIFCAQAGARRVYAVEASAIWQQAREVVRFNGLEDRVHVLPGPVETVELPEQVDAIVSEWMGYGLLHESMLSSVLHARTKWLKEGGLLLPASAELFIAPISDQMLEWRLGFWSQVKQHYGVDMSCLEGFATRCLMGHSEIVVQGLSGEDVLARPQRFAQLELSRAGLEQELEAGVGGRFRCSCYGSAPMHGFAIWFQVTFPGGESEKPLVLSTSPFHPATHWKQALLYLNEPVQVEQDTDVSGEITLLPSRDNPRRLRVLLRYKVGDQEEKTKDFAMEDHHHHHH

In the case of `CNCCN(C)Cc1c[nH]nc1C1CCC(C)(C)[C@H](C(=O)NCC(C)C)C1` (stereo partly drawn) [Compound 262], the EC30 is less than 3000 nM in assay [1] (setting [3]) and 289 nM in assay [1] (setting [4]). Also, the 50% inhibitory concentration (IC50) in assay [2] is less than 100 nM; in assay [2] (setting [5]), 81.2 nM.

For the compound `CCN(C(=O)CC(C)C)[C@H]1CC[C@H](c2n[nH]cc2CN(C)CCNC)CC1` [Compound 239], the concentration for an effect of 30% (EC30) is less than 3000 nM in assay [1] (setting [3]) and 2150 nM in assay [1] (setting [4]). Moreover, the half-maximal inhibitory concentration (IC50) is less than 100 nM in assay [2] and 7.75 nM in assay [2] (setting [5]).

Regarding `CNCCN(C)Cc1c[nH]nc1C1CCC(=O)N(Cc2ccc(C(F)(F)F)cc2)C1` (stereo not drawn) [Compound 191], the values for the EC30 in assay [1] (setting [3]) and in assay [1] (setting [4]) were 3010 to 12000 nM and 9250 nM, respectively. Besides, the IC50 in assay [2] was 101 to 1000 nM; in assay [2] (setting [5]), 107 nM.

With `CCN(C(=O)CC1CCOCC1)[C@H]1CC[C@@H](c2n[nH]cc2CN(C)CCNC)CC1` [Compound 196], the values for the EC30 in assay [1] (setting [3]) and in assay [1] (setting [4]) were 3010 to 12000 nM and 4890 nM, respectively. Besides, the IC50 in assay [2] is 101 to 1000 nM; in assay [2] (setting [5]) it was 111 nM.

In the case of `CCN(C(=O)CC1CCOCC1)[C@H]1CC[C@H](c2n[nH]cc2CN(C)CCNC)CC1` [Compound 195], the EC30 in assay [1] (setting [3]) is 3010 to 12000 nM; in assay [1] (setting [4]) it was 4890 nM. Further, the results for the IC50 in assay [2] and in assay [2] (setting [5]) were less than 100 nM and 51.7 nM, respectively.

As for `CCOCC1CC(c2n[nH]cc2CN(C)CCNC)CCC1(C)C` (stereo not drawn) [Compound 202], the figures for the concentration for an effect of 30% (EC30) in assay [1] (setting [3]) and in assay [1] (setting [4]) were less than 3000 nM and 327 nM, respectively. The values for the 50% inhibitory concentration (IC50) in assay [2] and in assay [2] (setting [5]) were less than 100 nM and 66.4 nM, respectively.

For the compound `CNCCN(C)Cc1c[nH]nc1[C@H]1CC[C@H](N(CCOC)C(=O)CCOc2ccccc2)CC1` [Compound 230], the EC30 is less than 3000 nM in assay [1] (setting [3]) and 1320 nM in assay [1] (setting [4]). The values for the IC50 in assay [2] and in assay [2] (setting [5]) were less than 100 nM and 23.1 nM, respectively.

Turning to `CNCCN(C)Cc1c[nH]nc1[C@H]1CC[C@]2(CCOC2(C)C)CC1` [Compound 253], the EC30 in assay [1] (setting [3]) is less than 3000 nM; in assay [1] (setting [4]), 56.6 nM. Besides, the 50% inhibitory concentration (IC50) was less than 100 nM in assay [2] and 13.4 nM in assay [2] (setting [5]).

Turning to `CNCCN(C)Cc1c[nH]nc1[C@H]1CC[C@@H](C(=O)NCCOc2ccccc2)CC1` [Compound 212], the concentration for an effect of 30% (EC30) was less than 3000 nM in assay [1] (setting [3]) and 433 nM in assay [1] (setting [4]). Besides, the figures for the 50% inhibitory concentration (IC50) in assay [2] and in assay [2] (setting [5]) were less than 100 nM and 13.6 nM, respectively.

On to `CCC(=O)N(CCOc1ccccc1)[C@H]1CC[C@@H](c2n[nH]cc2CN(C)CCNC)CC1` [Compound 220], for which the concentration for an effect of 30% (EC30) in assay [1] (setting [3]) is less than 3000 nM; in assay [1] (setting [4]), 219 nM. Also, the IC50 in assay [2] is less than 100 nM; in assay [2] (setting [5]) it was 18.4 nM.

As to `CCC(=O)N(CCOc1ccccc1)[C@H]1CC[C@H](c2n[nH]cc2CN(C)CCNC)CC1` [Compound 221], the EC30 is less than 3000 nM in assay [1] (setting [3]) and 490 nM in assay [1] (setting [4]). In addition, the IC50 in assay [2] was less than 100 nM; in assay [2] (setting [5]) it was 19.2 nM.

For `CCN(C(=O)CCC(C)C)[C@H]1CC[C@@H](c2n[nH]cc2CN(C)CCNC)CC1` [Compound 251], the EC30 in assay [1] (setting [3]) is less than 3000 nM; in assay [1] (setting [4]) it was 1450 nM. Moreover, the half-maximal inhibitory concentration (IC50) is less than 100 nM in assay [2] and 17.1 nM in assay [2] (setting [5]).

For orientation: EC30 means the point of the concentration-response curve where the effect stands at 30%. The term IC50 denotes the concentration at which inhibition is half-maximal.
